{"source": "paper PMC7738871", "about": "“Covalent modification of Keap1 at Cys77 and Cys434 by pubescenoside a suppresses oxidative stress-induced NLRP3 inflammasome activation in myocardial ischemia-reperfusion injury” (Theranostics, 2021)", "key": {"ROS in RAW264.7 cells": {"test_system": "ROS in RAW264.7 cells", "experiment": "Intracellular ROS (DCFH-DA), LPS plus ATP macrophages", "assay_type": "cell-based", "experimental": "(§1) The fluorescent probe DCFH-DA was used to measure intracellular ROS levels. RAW264.7 cells were treated with 100 μg/mL LPS plus ATP as mentioned above. H9c2 cells underwent OGD/R. After the appropriate treatment, the cells were incubated with DCFH-DA at a concentration of 10 μM for 30 min. The cells were washed with PBS three times. A fluorescence microscope and microplate reader were used to measure the level of DCFH-DA fluorescence at the excitation wavelength of 488 nm and the emission wavelength of 525 nm."}, "H9c2 cells": {"test_system": "H9c2 cells", "experiment": "MTT cytotoxicity, H9c2", "assay_type": "cell-based, rat", "conditions": "under 240 μM, 48 h", "experimental": "Cell viability was determined by MTT assays. PBA was prepared to a stock solution dissolved in dimethyl sulfoxide (DMSO). RAW264.7, H9c2 cells, primary mouse cardiomyocytes were treated with different doses of PBA, and DMSO only as control for 48 h for the toxicity. In addition, H9c2 cells or primary mouse cardiomyocytes were treated with the indicated doses of PBA, diazoxide as positive control, DMSO only as control, then cultured with or without OGD/R treatment. At the end of the experiments, MTT was added into each well at the concentration of 0.5 mg/ml, and incubated at 37 °C for 4 h. After removal of the supernatant, 150 μL of DMSO was added to solubilize the formazan products. And the solution was measured at the absorbance of 490 nm by a spectrophotometer (Thermo Fisher Scientific, MA, USA). The results of the MTT assay in all groups were normalized to the control group with DMSO only treatment."}, "HO-1 and NQO1": {"test_system": "HO-1 and NQO1", "experiment": "HO-1 and NQO1 protein expression, RAW264.7", "assay_type": "cell-based", "conditions": "RAW264.7, 24 h, dose-dependent", "experimental": "(§2) Total protein was isolated from H9c2 cells, primary mouse cardiomyocytes, RAW264.7 cells and heart tissue using 1X RIPA buffer containing phosphatase and proteinase inhibitors at 4 °C. After measurement of the concentration, the cell lysates were separated by sodium dodecyl sulphate polyacrylamide gel electrophoresis (SDS-PAGE) and transferred to polyvinylidene fluoride (PVDF) membranes. The membranes were blocked in Tris-buffered saline-Tween 20 (TBST) buffer with 5% BSA for 1 h and incubated with primary antibodies (1:1000 dilution) overnight at 4 °C. After the membranes was washed by TBST buffer for three times, they were incubated with horseradish peroxidase (HRP)-conjugated secondary mouse or rabbit antibodies (1:3,000 dilution) at room temperature (RT) for 1.5 h and then detected by SuperEnhanced chemiluminescence (ECL) reaction reagents (GBCBIO Technologies Inc., Guangzhou, Guangdong, China). In brief, drop evenly the ECL working liquid onto the membrane at the ratio of 1 mL ECL working liquid and 10 cm^2 of membrane. After letting the membranes stand for 1-2 min, the bands of the respective proteins were detected with the exposure time of 10 ~60 s."}, "ROS in H9c2 cells": {"test_system": "ROS in H9c2 cells", "experiment": "Intracellular ROS (DCFH-DA), OGD/R H9c2", "assay_type": "cell-based, rat", "experimental": "as §1"}, "Nrf2": {"test_system": "Nrf2", "experiment": "Nrf2 expression in cardiomyocytes under OGD/R", "assay_type": "cell-based", "conditions": "cardiomyocytes under OGD/R condition", "experimental": "as §2"}, "[1]": {"test_system": "T1, interaction between Keap1 and Nrf2", "T1 construct": "expressed in transfected cells; host or cells: 293T", "experiment": "Co-IP of Keap1 and Nrf2 in 293T cells", "assay_type": "cell-based, human", "experimental": "Figure 6 PBA suppresses Keap1-mediated ubiquitination of Nrf2 by disrupting the interaction between Cul3 and Keap1. (A and B) PBA suppressed Nrf2 ubiquitination in a Keap1-Cys77 and C434-dependent manner. First, 293T cells were transfected with WT-Keap1 or C77S and C434S-Keap1, Myc-Nrf2, and Ub plasmids for 24 h and treated with 30 μM PBA. The cell lysates were immunoprecipitated using anti-Myc beads, and the ubiquitination level was evaluated using the anti-Ub antibody. (C and D) PBA induced the dissociation of the Nrf2-Keap1 complex. Then, 293T cells were cotransfected with WT-Keap1 and Flag-Nrf2 plasmids for 24 h and treated with 30 μM PBA for 12 h. The cell lysates were immunoprecipitated with the anti-Flag antibody, and the level of Nrf2 was assessed using the anti-Nrf2 antibody. (E and F) PBA disrupted the interaction between Cul3 and Keap1. The 293T cells were transfected with the WT-Keap1 or C77S-C434S-Keap1 plasmids for 24 h and treated with 30 μM PBA for 12 h. The cell lysates were immunoprecipitated with the anti-Flag antibody, and the level of Cul3 was measured using the anti-Cul3 antibody. #p < 0.05, ##p < 0.01, ###p < 0.001, the control vs DMSO; *p < 0.05,**p < 0.01, ***p < 0.001, PBA or tBHQ vs DMSO. […] Primary mouse cardiomyocytes were transfected with mouse WT-Keap1 or C77S and C434S-Keap1 mutant vectors. After 24 h, the cells were treated with the indicated doses of PBA and subjected to OGD conditions as described in the Method section for 3 h and under normal conditions for another 18 h. Cell viability was measured by MTT assays. #p < 0.05, ###p < 0.001, the control vs OGD/R; **p < 0.01, ***p < 0.001, OGD/R+PBA vs OGD/R.\nTo investigate the effect of PBA on the interaction of Keap1 and Nrf2, we transfected 293T cells with Flag-Keap1 and Myc-Nrf2 plasmids, and treated them with 30 μM PBA for 24 h. The protein expression of Nrf2 was measured by western blotting analysis followed by immunoprecipitation with Flag beads."}}, "note": "“Also recorded” adds a separate entry of the source."}
{"compound": "C=C(COC(=O)C=Cc1ccc(O)c(O)c1)C(O)COC1OC(CO)C(O)C(O)C1O", "note": "(stereo not shown) [PBA, pubescenoside A]", "values": [{"measurement": "LPS plus ATP-induced ROS", "setting": "ROS in RAW264.7 cells", "value": "significantly suppress"}, {"measurement": "cell toxicity (MTT)", "setting": "H9c2 cells", "value": "did not exhibit any cell toxicity"}, {"measurement": "HO-1 and NQO1 expression at the protein level", "setting": "HO-1 and NQO1", "value": "increased"}, {"measurement": "OGD/R-induced ROS", "setting": "ROS in H9c2 cells", "value": "significantly suppress"}, {"measurement": "Nrf2 expression", "setting": "Nrf2", "value": "strongly induced"}, {"measurement": "Keap1-Nrf2 complex with mutant Keap1 (Co-IP)", "setting": "[1]; Cys77S and Cys434S-Keap1 mutant vectors", "value": "unable to block"}, {"measurement": "interaction between Keap1 and Nrf2 (Co-IP)", "setting": "[1]; WT-Keap1, 30 μM PBA", "value": "significantly disturbed; also recorded: disrupted"}]}
